Columns and labels:
Format in all cases: in vivo
[1] = tested on: Phakopsora pachyrhizi; assay: Test D: Asian soybean rust, preventive spray on soybean seedlings; settings: 100 = 100% disease control, 0 = no control; for pest or weed control at 50 ppm / Test D disease control rating (Asian soybean rust): 50 ppm
How it was run: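 Soybean seedlings sprayed to run-off with compound suspension (ppm, in 50/50 acetone/water with 250 ppm PEG400), inoculated next day with P. pachyrhizi spores, held 24 h saturated at 22°C then 8 days at 22°C. Visual rating 0-100% disease control relative to controls.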

[2] = tested on: Botrytis cinerea; assay: Test E: tomato Botrytis, preventive spray on tomato seedlings; settings: 100 = 100% disease control, 0 = no control; for pest or weed control at 50 ppm / Test E disease control rating (tomato Botrytis): 50 ppm
How it was run: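 Preventive test: spore inoculation one day after run-off spraying of compound suspension (3% acetone, acetone/water 50/50, 250 ppm PEG400). Incubation 20 °C saturated humidity for 48 h, followed by 3 days at 24 °C growth chamber; disease control scored visually, 100 = full control.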

[3] = tested on: Blumeria graminis f. sp. tritici; assay: Test C: wheat powdery mildew, preventive spray on wheat seedlings; settings: rated after 8 days, 100 = 100% disease control, 0 = no control; for pest or weed control at 50 ppm / Test C disease control rating (wheat powdery mildew): 50 ppm
How it was run: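 Wheat seedlings got a run-off spray of test suspension (ppm in acetone/water 50/50, 250 ppm PEG400, acetone 3% of volume), then spore-dust inoculation with wheat powdery mildew one day later. After 8 days' growth-chamber incubation at 20° C, disease control scored visually on a 0–100 scale versus untreated controls.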

[4] = tested on: Puccinia recondita f. sp. tritici; assay: Test B: wheat leaf rust, preventive spray on wheat seedlings; settings: 100 = 100% disease control, 0 = no control relative to controls; for pest or weed control at 50 ppm / Test B disease control rating (wheat leaf rust): 50 ppm
How it was run: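 Wheat seedlings got a run-off spray (ppm, acetone/water 50/50, 250 ppm PEG400) and one day later a spore inoculum. After 24 h at 20° C. in saturated air and 7 days at 20° C., disease was scored as % control relative to controls (100 = full control).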

[5] = tested on: Septoria tritici; assay: Test A: wheat leaf blotch, preventive spray on wheat seedlings; settings: 100 = 100% disease control, 0 = no control relative to controls; for pest or weed control at 50 ppm / Test A disease control rating (wheat leaf blotch): 50 ppm
How it was run: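 Preventive test: seedlings sprayed to run-off one day before Septoria tritici spore inoculation, with ppm doses in acetone/water containing 250 ppm PEG400. After 48 h at 24 °C in saturated air and 17 days at 20 °C, plants were scored 0–100 for disease control versus untreated controls.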

[6] = tested on: Alternaria solani; assay: Test F: tomato early blight, preventive spray on tomato seedlings; settings: 100 = 100% disease control, 0 = no control; for pest or weed control at 50 ppm / Test F disease control rating (tomato early blight): 50 ppm
How it was run: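 Preventive test: one day after seedlings were sprayed to run-off with ppm-level suspensions (acetone/water 50/50, 250 ppm PEG400), A. solani spore inoculation followed. Incubation was 48 h at 27° C in saturated air plus 3 days at 20° C; disease control was scored visually versus controls (100 = full control).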

[7] = Phakopsora pachyrhizi, read-out: Test D disease control rating (Asian soybean rust)
[8] = Botrytis cinerea, read-out: Test E disease control rating (tomato Botrytis)
[9] = Blumeria graminis, 192 h, read-out: Test C disease control rating (wheat powdery mildew)
[10] = read-out: Test B disease control rating (wheat leaf rust)
[11] = Zymoseptoria tritici, read-out: Test A disease control rating (wheat leaf blotch)
[12] = Alternaria solani, read-out: Test F disease control rating (tomato early blight)

Structure (SMILES) | pest or weed control at 50 ppm [1, 7] [%] | pest or weed control at 50 ppm [2, 8] [%] | pest or weed control at 50 ppm [3, 9] [%] | pest or weed control at 50 ppm [4, 10] [%] | pest or weed control at 50 ppm [5, 11] [%] | pest or weed control at 50 ppm [6, 12] [%] | pest or weed control at 10 ppm ([1]; Phakopsora pachyrhizi, 10 ppm, read-out: Test D disease control rating (Asian soybean rust)) [%] | pest or weed control at 10 ppm ([2]; Botrytis cinerea, 10 ppm, read-out: Test E disease control rating (tomato Botrytis)) [%] | pest or weed control at 10 ppm ([3]; Blumeria graminis, 192 h, 10 ppm, read-out: Test C disease control rating (wheat powdery mildew)) [%] | pest or weed control at 10 ppm ([4]; 10 ppm, read-out: Test B disease control rating (wheat leaf rust)) [%] | pest or weed control at 10 ppm ([5]; Zymoseptoria tritici, 10 ppm, read-out: Test A disease control rating (wheat leaf blotch)) [%] | pest or weed control at 10 ppm ([6]; Alternaria solani, 10 ppm, read-out: Test F disease control rating (tomato early blight)) [%] | Test D disease control rating (Asian soybean rust) [1] [%] | Test E disease control rating (tomato Botrytis) [2] [%] | Test C disease control rating (wheat powdery mildew) [3] [%] | Test B disease control rating (wheat leaf rust) [4] [%] | Test A disease control rating (wheat leaf blotch) [5] [%] | Test F disease control rating (tomato early blight) [6] [%]
Cc1nn(C)c(Nc2c(Cl)cc(F)cc2[N+](=O)[O-])c1-c1ccc(F)cc1Cl [Compound 19, N-(2-chloro-4-fluoro-6-nitrophenyl)-4-(2-chloro-4-fluorophenyl)-1,3-dimethyl-1H-pyrazol-5-amine] | 98 | 100 | 100 | 100 | 100 | 99 |  |  |  |  |  |  |  |  |  |  |  | 
Cc1nn(C)c(Nc2c(F)cccc2[N+](=O)[O-])c1-c1ccc(F)cc1F [Compound 118, 4-(2,4-difluorophenyl)-N-(2-fluoro-6-nitrophenyl)-1,3-dimethyl-1H-pyrazol-5-amine] | 0 | 100 | 98 | 100 | 100 | 99 | 0 | 99 | 27 | 80 | 100 | 60 |  |  |  |  |  | 
COc1ccc(Nc2c(-c3ccc(C#N)cc3F)c(C)nn2C)c([N+](=O)[O-])c1 [Compound 179] |  |  |  |  |  |  |  |  |  |  |  |  | 0 | 99 | 93 | 96 | 100 | 85
Cc1nn(C)c(Nc2c(F)cc(F)cc2[N+](=O)[O-])c1-c1ccc(Cl)cc1Cl [Compound 9] |  |  |  |  |  |  |  |  |  |  |  |  | 0 | 97 | 97 | 100 | 100 | 99
COc1ccc(-c2c(C)nn(C)c2Nc2c(F)cccc2[N+](=O)[O-])c(Cl)c1 [Compound 27] |  |  |  |  |  |  |  |  |  |  |  |  | 87 | 100 | 91 | 100 | 100 | 99
Cn1nc(C#N)c(-c2ccc(F)cc2Cl)c1Nc1c(F)cccc1[N+](=O)[O-] [Compound 122] |  |  |  |  |  |  |  |  |  |  |  |  | 0 | 100 | 94 | 100 | 100 | 99
COc1cc(F)c(Nc2c(-c3ccc(F)cc3Cl)c(C)nn2C)c([N+](=O)[O-])c1 [Compound 85] |  |  |  |  |  |  |  |  |  |  |  |  | 96 | 94 | 97 | 100 | 100 | 98
Cc1nn(C)c(Nc2c(F)cc(Br)cc2[N+](=O)[O-])c1-c1ccc(F)cc1F [Compound 56] |  |  |  |  |  |  |  |  |  |  |  |  | 65 | 99 | 100 | 100 | 100 | 99
Cc1nn(C)c(Nc2ccc(OCC#N)cc2[N+](=O)[O-])c1-c1ccc(F)cc1Cl [Compound 29] |  |  |  |  |  |  |  |  |  |  |  |  | 81 | 99 | 87 | 98 | 97 | 26
Cc1cccc([N+](=O)[O-])c1Nc1c(-c2ccc(F)cc2Cl)c(C)nn1C [Compound 117] |  |  |  |  |  |  |  |  |  |  |  |  | 0 | 99 | 95 | 100 | 99 | 76
CCc1nn(C)c(Nc2c(Cl)cc(Br)cc2[N+](=O)[O-])c1-c1ccc(F)cc1Cl [Compound 128] |  |  |  |  |  |  |  |  |  |  |  |  | 31 | 99 | 96 | 98 | 100 | 33
COc1ccc(Nc2c(-c3ccc(Cl)cc3Cl)c(C)nn2C)c([N+](=O)[O-])c1 [Compound 142] |  |  |  |  |  |  |  |  |  |  |  |  | 25 | 99 | 39 | 91 | 100 | 80
Cc1nn(C)c(Nc2ccccc2[N+](=O)[O-])c1-c1ccc(C#N)cc1F [Compound 134] |  |  |  |  |  |  |  |  |  |  |  |  | 0 | 70 | 71 | 23 | 100 | 0
COc1cc(Cl)c(Nc2c(-c3ccc(F)cc3Cl)c(C)nn2C)c([N+](=O)[O-])c1 [Compound 80] |  |  |  |  |  |  |  |  |  |  |  |  | 50 | 95 | 97 | 100 | 100 | 98
COc1cc(F)c(-c2c(C)nn(C)c2Nc2c(F)cc(Cl)cc2[N+](=O)[O-])c(F)c1 [Compound 86] |  |  |  |  |  |  |  |  |  |  |  |  | 77 | 96 | 98 | 100 | 100 | 99
Cc1nn(C)c(Nc2c(F)cc(F)cc2[N+](=O)[O-])c1-c1c(F)cccc1F [Compound 75] |  |  |  |  |  |  |  |  |  |  |  |  | 0 | 57 | 90 | 99 | 100 | 98
Cc1nn(C)c(Nc2c(F)cccc2[N+](=O)[O-])c1-c1c(F)cc(F)cc1F [Compound 62] |  |  |  |  |  |  |  |  |  |  |  |  | 100 | 99 | 100 | 100 | 100 | 99
Cc1nn(C)c(Nc2c(Cl)cc(Cl)cc2[N+](=O)[O-])c1-c1ccc(C#N)cc1Cl [Compound 116] |  |  |  |  |  |  |  |  |  |  |  |  | 0 | 63 | 56 | 99 | 99 | 82
